Activity calls are given as the source filed them. The rule behind the calls is not given here.

The test system of the series is rodent lifetime carcinogenesis bioassay, tumor incidence TD50. The series is described as follows: chronic cancer bioassays in animals – CPDB, compiled studies (AID 1745844). Conditions: for TD50: in feed, dosed 78 weeks; for carcinogen call: strain Swiss albino, in drinking water.

Consider `Nc1ccc(Cl)cc1N`, for which the TD50 (as a rule, the dose at which the toxic effect under study appears in half of the subjects) was 4090 mg/kg/day (mouse, strain B6C3F1, females, site: any site (literature study), lesion: several types, types named in the paper, study length 95 weeks); 2240 mg/kg/day (mouse, strain B6C3F1, females, site: liver, lesion: hepatocellular adenoma + hepatocellular carcinoma + neoplastic nodule, study length 95 weeks); 2240 mg/kg/day (mouse, strain B6C3F1, females, site: liver, lesion: hepatocellular adenoma + hepatocellular carcinoma, study length 95 weeks); 5060 mg/kg/day (mouse, strain B6C3F1, females, site: liver, lesion: hepatocellular carcinoma, study length 95 weeks); 905 mg/kg/day (mouse, strain B6C3F1, males, site: any site (literature study), lesion: several types, types named in the paper, study length 95 weeks); 957 mg/kg/day (mouse, strain B6C3F1, males, site: liver, lesion: hepatocellular adenoma + hepatocellular carcinoma + neoplastic nodule, study length 95 weeks). The TD50 is 957 mg/kg/day (mouse, strain B6C3F1, males, site: liver, lesion: hepatocellular adenoma + hepatocellular carcinoma, study length 95 weeks); 1370 mg/kg/day (mouse, strain B6C3F1, males, site: liver, lesion: hepatocellular carcinoma, study length 95 weeks); 21300 mg/kg/day (mouse, strain B6C3F1, males, site: lung, lesion: alveolar/bronchiolar adenoma + alveolar/bronchiolar carcinoma, study length 95 weeks); 351 mg/kg/day (rat, strain Fischer 344, females, site: any site (literature study), lesion: several types, types named in the paper, study length 105 weeks); 6500 mg/kg/day (rat, strain Fischer 344, females, site: liver, lesion: hepatocellular adenoma + hepatocellular carcinoma + neoplastic nodule, study length 105 weeks); 212 mg/kg/day (rat, strain Fischer 344, females, site: stomach + urinary bladder, lesion: squamous-cell papilloma + papillomatosis + papillary carcinoma + papilloma, NOS + transitional-cell carcinoma + transitional-cell, study length 105 weeks). Besides, the TD50 was 5270 mg/kg/day (rat, strain Fischer 344, females, site: stomach, lesion: squamous-cell papilloma, study length 105 weeks); 2160 mg/kg/day (rat, strain Fischer 344, females, site: thyroid gland, lesion: follicular-cell adenoma + follicular-cell carcinoma, study length 105 weeks); 429 mg/kg/day (rat, strain Fischer 344, females, site: urinary bladder, lesion: papillary carcinoma + transitional-cell carcinoma, study length 105 weeks); 212 mg/kg/day (rat, strain Fischer 344, females, site: urinary bladder, lesion: papillomatosis + papillary carcinoma + papilloma, NOS + transitional-cell carcinoma + transitional-cell papilloma, study length 105 weeks); 362 mg/kg/day (rat, strain Fischer 344, males, site: any site (literature study), lesion: several types, types named in the paper, study length 105 weeks); 1240 mg/kg/day (rat, strain Fischer 344, males, site: liver, lesion: hepatocellular adenoma + hepatocellular carcinoma + neoplastic nodule, study length 105 weeks). Further, the TD50 reads like this: (rat, strain Fischer 344, males, site: stomach + urinary bladder, lesion: squamous-cell carcinoma + squamous-cell papilloma + papilloma, NOS + transitional-cell carcinoma + transitional-cell papilloma, study length 105 weeks) 197 mg/kg/day; (rat, strain Fischer 344, males, site: stomach, lesion: squamous-cell carcinoma + squamous-cell papilloma, study length 105 weeks) 2500 mg/kg/day; (rat, strain Fischer 344, males, site: thyroid gland, lesion: follicular-cell adenoma + follicular-cell carcinoma, study length 105 weeks) 3380 mg/kg/day; (rat, strain Fischer 344, males, site: urinary bladder, lesion: papilloma, NOS + transitional-cell carcinoma + transitional-cell papilloma, study length 105 weeks) 216 mg/kg/day; (rat, strain Fischer 344, males, site: urinary bladder, lesion: squamous-cell carcinoma, study length 105 weeks) 3780 mg/kg/day; (rat, strain Fischer 344, males, site: urinary bladder, lesion: transitional-cell carcinoma, study length 105 weeks) 363 mg/kg/day.

Take `NC(=O)c1cccnc1`: the carcinogen call is, setting by setting: (mouse, females, site: lung, lesion: several types, types named in the paper, dosed 113 weeks, study length 113 weeks) “negative (inactive)”; (mouse, males, site: lung, lesion: several types, types named in the paper, dosed 109 weeks, study length 109 weeks) “negative (inactive)”.

The record behind these values is PubChem BioAssay AID1745844 (Carcinogenic Potency Database (CPDB), 2022).
